Measured values: paper PMC8041284, “Tunable Methacrylamides for Covalent Ligand Directed Release Chemistry” (Journal of the American Chemical Society, 2021)

These compounds were tested against BTK (Homo sapiens, UniProt Q06187) (assay: biochemical). Conditions: read-out: BTK inhibition (%).
Sequence of BTK (Q06187 402-655 limits assumed): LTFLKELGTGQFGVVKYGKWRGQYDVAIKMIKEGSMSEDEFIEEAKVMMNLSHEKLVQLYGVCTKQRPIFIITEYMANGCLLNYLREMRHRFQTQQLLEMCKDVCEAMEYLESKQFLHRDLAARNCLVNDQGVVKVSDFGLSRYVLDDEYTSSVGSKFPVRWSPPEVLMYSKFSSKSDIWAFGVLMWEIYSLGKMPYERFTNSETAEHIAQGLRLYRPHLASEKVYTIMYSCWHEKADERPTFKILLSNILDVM

`CC(=O)O[C@@H]1[C@H]2[C@@H](OC(=O)Cc3ccccc3)[C@@H](C)C[C@]2(OC(C)=O)C(=O)/C(C)=C/[C@@H]2[C@H](CC[C@]13CO3)C2(C)C` [PCM-0216313] was tested, and the inhibition at 10 µM was -27.8%.

Same assay, conditions: read-out: BTK inhibition (%), 0.75 uM BTK, […] probe 3l, 15 min preincubation

Going from `N#C/C(=C\c1ccc(O)c(O)c1)C(=O)NCc1ccccc1` [PCM-0094962] to `O=C(O)CSc1cc(NS(=O)(=O)c2ccc(Br)cc2)c2ccccc2c1O` [PCM-0215378], the inhibition at 10 µM falls from 53.1% to 51.7%.

First: Cc1ccc(C)c(OCCCC(C)(C)C(=O)O)c1 [PCM-0085876]
Second: CCOC(=O)c1ccc(O)c(OC)c1 [PCM-0215087]
The inhibition at 10 µM of the first is lower: -29.6% for the first, -7.8% for the second.

First: NC(=O)c1ccc(-c2nc(-c3ccc4c(c3)OCCO4)c(-c3ccccn3)[nH]2)cc1 [PCM-0215472]
Second: CNC(=O)c1ccc(-c2cnc3ncc(Cc4ccc5ncccc5c4)n3n2)cc1F [PCM-0095370]
The inhibition at 10 µM of the first is higher: 17.2% for the first, -24.7% for the second.

First: C[C@H](O)[C@H](O)c1cnc2nc(N)[nH]c(=O)c2n1 [PCM-0216576]
Second: C[C@@H](NC(=O)c1ncnc(N)c1Cl)c1ncc(C(=O)Nc2cc(C(F)(F)F)c(Cl)cn2)s1 [PCM-0215620]
The inhibition at 10 µM of the first is higher: 6.8% for the first, -12.4% for the second.

Compared with `Nc1cccc(-c2cc3c(Oc4cccc(O)c4)ncnc3[nH]2)c1` [PCM-0095147], `COc1cc(-c2cc(-c3cccc(O)c3)cnc2N)cc(OC)c1OC` [PCM-0095813] is lower in inhibition at 10 µM: 82.1% for the first, 29.3% for the second.

Going from `COc1nc(C)cnc1NS(=O)(=O)c1cccnc1-c1ccc(-c2nnco2)cc1` [PCM-0095131] to `CNCc1ccc(-c2cc(-c3nc(-c4ccc(S(=O)(=O)C(C)C)cc4)cnc3N)on2)cc1` [PCM-0213360], the inhibition at 10 µM rises from 3.4% to 17.9%.

Compared with `OCCOCCN1CCN(C(c2ccccc2)c2ccc(Cl)cc2)CC1` (stereo not drawn) [PCM-0085866], `O=c1ccc2ccc(OCCCCN3CCN(c4cccc5sccc45)CC3)cc2[nH]1` [PCM-0214822] is lower in inhibition at 10 µM: 4.1% for the first, 0.8% for the second.

Going from `C=C1[C@H]2C[C@@]3([C@@H]1O)[C@@H](CC2=O)[C@]12[C@@H]4C[C@H]3[C@H]1N(CC)C[C@]4(C)CC[C@@H]2O` [PCM-0216364] to `C[C@H](CCC(=O)O)[C@H]1CC[C@H]2[C@@H]3CC[C@@H]4C[C@H](O)CC[C@]4(C)[C@H]3C[C@H](O)[C@]12C` [PCM-0214839], the inhibition at 10 µM falls from 19.3% to 11.7%.

Compared with `CS(=O)(=O)c1cccc(C[C@H](NC(=O)c2c(Cl)cc3c(c2Cl)CCN(C(=O)c2ccc4ccoc4c2)C3)C(=O)O)c1` [PCM-0214914], `CN(C)C(=O)c1ccc(S(=O)(=O)c2ccc(NC(=O)[C@@](C)(O)C(F)(F)F)c(Cl)c2)cc1` [PCM-0215295] is higher in inhibition at 10 µM: -4.7% for the first, 3.1% for the second.

Compared with `CCOC(=O)[C@H](CCc1ccccc1)N[C@@H](C)C(=O)N1Cc2ccccc2C[C@H]1C(=O)O` [PCM-0086504], `CCNC(=O)CCC/C=C\C[C@@H]1[C@@H](/C=C/[C@@H](O)CCc2ccccc2)[C@H](O)C[C@@H]1O` [PCM-0095085] is higher in inhibition at 10 µM: -16.3% for the first, 15.2% for the second.

First: CCCC(=O)Nc1ncnc2c1ncn2[C@@H]1O[C@@H]2COP(=O)(O)O[C@H]2[C@H]1OC(=O)CCC [PCM-0215503]
Second: CCCC(=O)O[C@]1(C(=O)COC(C)=O)CC[C@H]2[C@@H]3C[C@H](F)C4=CC(=O)C=C[C@]4(C)[C@@]3(F)[C@@H](O)C[C@@]21C [PCM-0214767]
The inhibition at 10 µM of the first is higher: 4.6% for the first, -3.4% for the second.

Going from `CC(=O)[C@H]1CC[C@H]2[C@@H]3CC=C4C[C@@H](O)CC[C@]4(C)[C@H]3CC[C@]12C` [PCM-0086127] to `CC(=O)O[C@]1(C)CC[C@@]23C[C@@H]1C(C)(C)[C@@H]2CC[C@H]3C` [PCM-0215054], the inhibition at 10 µM rises from -22.6% to 10.9%.

Compared with `CCOc1cc(C(=O)N2CCC(N3CCN(C)CC3)CC2)ccc1Nc1ncc2c(n1)N(C1CCCC1)c1ccccc1C(=O)N2C` [PCM-0213331], `O=C(c1ccc(Nc2nccc(-c3cc4ccccc4s3)n2)cc1)N1CCC(N2CCCC2)CC1` [PCM-0095335] is higher in inhibition at 10 µM: 0% for the first, 86.2% for the second.

Going from `CC1=C(C(=O)O)N2C(=O)[C@@H](NC(=O)[C@H](N)c3ccccc3)[C@H]2SC1` [PCM-0095179] to `Cc1cc(N2CCCCC2)nc2ccccc12` [PCM-0215982], the inhibition at 10 µM rises from 4.3% to 10%.

Going from `c1cc(CN2CCCNCCNCCCNCC2)ccc1CN1CCCNCCNCCCNCC1` [PCM-0095456] to `C[C@@H](Oc1cc(-n2cnc3ccc(CN4CCN(C)CC4)cc32)sc1C(N)=O)c1ccccc1C(F)(F)F` [PCM-0095237], the inhibition at 10 µM falls from 6.8% to 0.7%.

`CO[C@@H]1[C@@H](O[C@@H]2O[C@H](C)[C@@H](O[C@H]3C[C@@](C)(O)[C@@H](O)[C@H](C)O3)[C@H](N(C)C)[C@H]2O)[C@@H](CC=O)C[C@@H](C)[C@@H](O)/C=C/C=C/C[C@@H](C)OC(=O)C[C@H]1O` [PCM-0214884] and `CCC(=O)O[C@@H]1CC(=O)O[C@H](C)C/C=C/C=C/[C@H](O)[C@H](C)C[C@H](CC=O)[C@H](O[C@@H]2O[C@H](C)[C@@H](O[C@H]3C[C@@](C)(O)[C@@H](OC(=O)CC)[C@H](C)O3)[C@H](N(C)C)[C@H]2O)[C@H]1OC` [PCM-0216255] are the same in inhibition at 10 µM: 6.2% for the first, 6.2% for the second.

Compared with `CS(=O)(=O)Nc1ccc([N+](=O)[O-])cc1OC1CCCCC1` [PCM-0215740], `CNCCN(C)Cc1cn[nH]c1-c1ccc(OC2CC(OCCC3CCOCC3)C2)cc1` (stereo not drawn) [PCM-0215762] is higher in inhibition at 10 µM: 3.4% for the first, 11.6% for the second.

First: C[C@H]1C[C@@H]2[C@H]([C@@H](O)C[C@@]3(C)[C@H]2CC[C@]3(O)C(=O)CO)[C@@]2(C)C=CC(=O)C=C12 [PCM-0085838]
Second: CCC[C@@H]1C[C@@H](C(=O)N[C@@H]([C@H]2O[C@H](SC)[C@H](OP(=O)(O)O)[C@@H](O)[C@H]2O)[C@H](C)Cl)N(C)C1 [PCM-0095212]
The inhibition at 10 µM of the first is higher: 9% for the first, -5.1% for the second.

Going from `CN1CCC[C@H]1c1cccnc1` [PCM-0215258] to `CC(=O)NC[C@H]1CN(c2ccc(N3CCOCC3)c(F)c2)C(=O)O1` [PCM-0064450], the inhibition at 10 µM falls from -1.6% to -23.3%.

Compared with `NCCCC(O)(P(=O)(O)O)P(=O)(O)O` [PCM-0215186], `OC[C@@H](O)[C@@H](O)[C@@H](O)[C@@H](O)CO` [PCM-0216285] is lower in inhibition at 10 µM: 0.9% for the first, -17% for the second.

Compared with `OC(Cn1cncn1)(Cn1cncn1)c1ccc(F)cc1F` [PCM-0086230], `CCCCOC(=O)c1ccccc1Nc1cccc(C(F)(F)F)c1` [PCM-0216094] is higher in inhibition at 10 µM: 9.3% for the first, 21.4% for the second.

Going from `O=c1cc(-c2cccc3c2Sc2ccccc2S3)oc(N2CCOCC2)c1` [PCM-0095067] to `CC(C)(C)c1cc(NC(=O)Nc2ccc(-c3cn4c(n3)sc3cc(OCCN5CCOCC5)ccc34)cc2)no1` [PCM-0095196], the inhibition at 10 µM rises from -12.4% to 1.4%.

Going from `Cc1cnc(C(=O)O)c[n+]1[O-]` [PCM-0086103] to `O=C(O)Cc1ccc(O)cc1` [PCM-0215121], the inhibition at 10 µM rises from 3.1% to 25.7%.

First: CCC1(c2ccccc2)C(=O)NCNC1=O [PCM-0065590]
Second: CNCCCC12CCC(c3ccccc31)c1ccccc12 [PCM-0064754]
The inhibition at 10 µM of the first is lower: -17.1% for the first, 11.7% for the second.

Compared with `Cc1c[nH]c(=O)[nH]c1=O` [PCM-0216631], `CCCCOc1c(C(=O)c2c(F)cc(C)cc2F)cnc2n[nH]cc12` [PCM-0095294] is lower in inhibition at 10 µM: 14.7% for the first, -2.1% for the second.

Compared with `Cc1nnsc1C(=O)Nc1ccc(-n2nc(C(F)(F)F)cc2C(F)(F)F)cc1` [PCM-0215731], `COCCOc1nc(-c2ccc(Cl)c(Cl)c2)n(-c2ccc(NC(=O)CCl)cc2)n1` [PCM-0215327] is higher in inhibition at 10 µM: 22.4% for the first, 106% for the second.

`O=C(Nc1cccnc1)c1cc(-c2ccnc(F)c2)ccc1OCc1ccccc1` [PCM-0213433] showed an inhibition at 10 µM of 2.1%.
